# Experimental data from patent US5580552A, “7-glycosyloxybenzopyran derivative and antiallergic agent containing the derivative as active ingredient” (priority 1994, dated 1996).
# Legend:
# [1] = tested on: homologous passive cutaneous anaphylaxis (PCA) reaction; assay: Effect on homologous passive cutaneous anaphylaxis (PCA) reaction in rats; assay type: in vivo, rats (male wistar); conditions: 50 mg/kg oral, 1 hour before challenge (TABLE 2); for inhibition in vivo at 50 mg/kg: Rattus norvegicus, po, 0.5 h
# Method: Effect on homologous passive cutaneous anaphylaxis (PCA) reaction in rats.
# This experimental animal model is caused by immediate type allergic reaction namely, antigen-antibody reaction. In the following, the method of this pharmacological test will be explained.
# Method: Male wistar rats (9 weeks old) were intradermally administered 0.05 ml of anti-serum against dinitrophenylated ascaris (DNP-As) into two sites on the shaved dorsal skin. 48 hours later, 7-glycosyloxybenzopyran derivatives (test compounds) suspended in 0.5% sodium carboxymethylcellulose (CMCNa) were given orally at a dose of 50 mg/kg to the animals. One hour after administration of Test compounds, the animals were induced anaphylaxis by injection of saline (1 ml) dissolving 5 mg of Evans Blue and 1 mg of Trinitrophenylated ascaris (TNP-As) into the tail vein of the animals. 30 minutes after induction of anaphylaxis, animals were anesthetized by ether and killed by bleeding, and were flayed dorsal skin. The determination of extravasated dye was performed according to the method of Katayama et al. (Microbiol. Immunol., Vol.22, P 89-101, 1978). As vehicle control group, only 0.5% CMCNa solution was administered orally, and as positive control group, Tranilast suspended in 0.5% CMCNa was administered orally at a dose of 100 mg/kg to the animals with the same method as the test compounds groups. Each experimental group consisted of 5 rats. [formula]
# [2] = tested on: contact dermatitis induced by picryl chloride; assay: Effect on contact dermatitis induced by picryl chloride in mice; assay type: in vivo; conditions: 50 mg/kg oral, 1 hour before and 16 hours after challenge, 24 hours after challenge; for inhibition in vivo at 50 mg/kg: Mus musculus, po, 24 h, read-out: Inhibition (%) against the increase of ear thickness
# Method: Effect on contact dermatitis induced by picryl chloride in mice
# The delayed type hypersensitization is inhibited by steroid drugs,but can not be effected by known anti-allergic agents. In the following, the method of the pharmacological test will be explained.
# Method: Mice, shaved their abdominal skin on previous day, were immunized by applying 0.1 ml of acetone containing 7 mg of picryl chloride to the skin of the abdomen. 7 days after immunization, the thickness of the ear was measured with a dial thickness gauge, then mice were challenged by painting 5 μl of 1% picryl chloride olive oil solution to each side skin of left ear. 24 hours after challenge, the thickness of the left ear was measured again and the increase (%) of thickness was calculated according to equation 2. The compounds of the present invention (test compounds) suspended in 0.5% CMCNa were forcibly administered orally at a dose of 50 mg/kg at 1 hour before and 16 hours after challenge. As vehicle control group, only 0.5% CMCNa solution were administered orally, and as positive control group, Prednisolone, steroid hormone, and Tranilast were administered orally at the doses of 10 mg/kg and 100 mg/kg, respectively.
# Increase (%)=(A-B)/B×100 (Equation 2)
# A: thickness of the ear at 24 hours after challenge
# B: thickness of the ear before challenge
# Inhibition (%)=(C-D)/C×100 (equation 3)
# C: The increase (%) in vehicle control group
# D: The increase (%) in test compounds group or positive control group
# [3] = tested on: experimental asthma model (airway resistance); assay: Effect on experimental asthma model in guinea pigs (airway resistance); assay type: in vivo, guinea pigs (male hartley); conditions: 50 mg/kg oral (TABLE 6); for inhibition in vivo at 50 mg/kg: Cavia porcellus, po, 0.5 h
# Method: Effect on experimental asthma model in guinea pigs
# The asthma is typical allergic disease and we carried out this pharmacological test by well known experimental asthma model in guinea pigs in order to comfirm that the compounds of the present invention suppress the asthma. In the following, the method of the pharmacological test will be explained.
# Method: Male hartley guinea pigs were immunized by intraperitoneal injection of saline (1ml) containing 5 mg of ovalbumine (OVA) three times at interval of one week. 2 weeks after final immunization, the animals were challenged by inhalation of 1% OVA-saline solution for 1 minute and then the airway resistance of the animals were measured for 30 minutes with PULMOS-1 (Medical Interface Project Station Inc.) after the inhalation. The compounds of the present invention (test compounds) suspended in 0.5% CMCNa were given orally at a dose of 50 mg/kg. As positive control group, Disodium Cromoglicate (DSCG), well known anti-allergic agent, in saline were injected at a dose of 20 mg/kg into the vein of the animals. As vehicle control group, only 0.5% CMCNa solution were given orally. The inhibition (%) of the airway resistance in vehicle control group was calculated according to equation 5 and the result was shown in TABLE 6. Each experimental group consisted of 5 guinea pigs. [formula]
# A: Maximum airway resistance in vehicle control group
# B: Maximum airway resistance in test compounds group or positive control group
Structure (SMILES),inhibition in vivo at 50 mg/kg [1],inhibition in vivo at 50 mg/kg [2],inhibition in vivo at 50 mg/kg [3],Inhibition (%) of PCA reaction [1],Inhibition (%) against the increase of ear thickness [2],Inhibition (%) of the airway resistance [3]
COc1c(O)c(=O)oc2cc(O[C@@H]3O[C@H](CO)[C@@H](O)[C@H](O)[C@H]3O)ccc12 [compound 109],42.1%,43.8%,53.1%,–,–,–
CCCCOc1c(O)c(=O)oc2cc(O[C@@H]3O[C@H](CO)[C@@H](O)[C@H](O)[C@H]3O)ccc12 [compound 110],41.4%,42.9%,56.5%,–,–,–
CCCCCCCCCCOc1c(O)c(=O)oc2cc(O[C@@H]3O[C@H](CO)[C@@H](O)[C@H](O)[C@H]3O)ccc12 [compound 111],43.1%,41.2%,61.3%,–,–,–
CCCCCCCCCCCCOc1c(O)c(=O)oc2cc(O[C@@H]3O[C@H](CO)[C@@H](O)[C@H](O)[C@H]3O)ccc12 [compound 112],44.5%,43.3%,57.2%,–,–,–
CC(C)Oc1c(O)c(=O)oc2cc(O[C@@H]3O[C@H](CO)[C@@H](O)[C@H](O)[C@H]3O)ccc12 [compound 113],40.3%,45.5%,56.6%,–,–,–
CC1CCC(Oc2c(O)c(=O)oc3cc(O[C@@H]4O[C@H](CO)[C@@H](O)[C@H](O)[C@H]4O)ccc23)CC1 (stereo partly drawn) [compound 114],45.3%,47.3%,59.7%,–,–,–
C=COc1c(O)c(=O)oc2cc(O[C@@H]3O[C@H](CO)[C@@H](O)[C@H](O)[C@H]3O)ccc12 [compound 115],42.2%,40.2%,53.1%,–,–,–
CCC=CCCOc1c(O)c(=O)oc2cc(O[C@@H]3O[C@H](CO)[C@@H](O)[C@H](O)[C@H]3O)ccc12 [compound 116],46.1%,44.4%,62.8%,–,–,–
CC(C)=CCC/C(C)=C/COc1c(O)c(=O)oc2cc(O[C@@H]3O[C@H](CO)[C@@H](O)[C@H](O)[C@H]3O)ccc12 [compound 117],40.3%,42.3%,49.4%,–,–,–
O=c1oc2cc(O[C@@H]3O[C@H](CO)[C@@H](O)[C@H](O)[C@H]3O)ccc2c(OCc2ccccc2)c1O [compound 118],–,–,–,41.2%,43.5%,45.3%
O=c1oc2cc(O[C@H]3O[C@H](CO)[C@@H](O)[C@H](O)[C@@H]3O)ccc2c(O)c1O [compound 130],–,–,–,40.1%,41.2%,40.2%
COc1c(O)c(=O)oc2cc(O[C@H]3O[C@H](CO)[C@@H](O)[C@H](O)[C@@H]3O)ccc12 [compound 131],41.2%,40.9%,42.5%,–,–,–
CCCCCCCCOc1c(O)c(=O)oc2cc(O[C@H]3O[C@H](CO)[C@@H](O)[C@H](O)[C@@H]3O)ccc12 [compound 132],42.9%,43.2%,50.1%,–,–,–
CCCCCCCCCCOc1c(O)c(=O)oc2cc(O[C@H]3O[C@H](CO)[C@@H](O)[C@H](O)[C@@H]3O)ccc12 [compound 133],42.3%,41.4%,43.2%,–,–,–
CCCCCCCCCCCCOc1c(O)c(=O)oc2cc(O[C@H]3O[C@H](CO)[C@@H](O)[C@H](O)[C@@H]3O)ccc12 [compound 134],41.5%,43.7%,45.9%,–,–,–
CC(C)Oc1c(O)c(=O)oc2cc(O[C@H]3O[C@H](CO)[C@@H](O)[C@H](O)[C@@H]3O)ccc12 [compound 135],40.3%,44.6%,47.1%,–,–,–
CC1CCC(Oc2c(O)c(=O)oc3cc(O[C@H]4O[C@H](CO)[C@@H](O)[C@H](O)[C@@H]4O)ccc23)CC1 (stereo partly drawn) [compound 136],42.2%,41.2%,51.2%,–,–,–
C=COc1c(O)c(=O)oc2cc(O[C@H]3O[C@H](CO)[C@@H](O)[C@H](O)[C@@H]3O)ccc12 [compound 137],41.7%,43.5%,45.4%,–,–,–
CCC=CCCOc1c(O)c(=O)oc2cc(O[C@H]3O[C@H](CO)[C@@H](O)[C@H](O)[C@@H]3O)ccc12 [compound 138],42.5%,44.7%,50.8%,–,–,–
CC(C)=CCC/C(C)=C/COc1c(O)c(=O)oc2cc(O[C@H]3O[C@H](CO)[C@@H](O)[C@H](O)[C@@H]3O)ccc12 [compound 139],41.8%,42.1%,47.2%,–,–,–
O=c1oc2cc(O[C@H]3O[C@H](CO)[C@@H](O)[C@H](O)[C@@H]3O)ccc2c(OCc2ccccc2)c1O [compound 140],40.4%,40.1%,45.1%,–,–,–
CC(=O)Oc1c(OC(C)C)c2ccc(O[C@@H]3O[C@H](COCc4ccccc4)[C@@H](OCc4ccccc4)[C@H](OCc4ccccc4)[C@H]3OCc3ccccc3)cc2oc1=O [compound 145],40.2%,42.1%,41.9%,–,–,–
O=c1oc2cc(O[C@@H]3O[C@H](CO)[C@@H](O)[C@H](O)[C@H]3O)ccc2c(O)c1O [compound 151],–,–,–,45.4%,46.5%,49.7%
O=c1oc2cc(O[C@@H]3O[C@H](CO)[C@@H](O)[C@H](O)[C@H]3O)ccc2c(OCc2ccccc2)c1O [compound 152],41.3%,43.2%,52.4%,–,–,–
COc1c(O)c(=O)oc2cc(O[C@@H]3O[C@H](CO)[C@@H](O)[C@H](O)[C@H]3O)ccc12 [compound 153],–,–,–,42.4%,44.7%,54.3%
CCCCCCCCCCOc1c(O)c(=O)oc2cc(O[C@@H]3O[C@H](CO)[C@@H](O)[C@H](O)[C@H]3O)ccc12 [compound 154],–,–,–,43.2%,41.6%,59.2%
CCCCCCCCCCCCOc1c(O)c(=O)oc2cc(O[C@@H]3O[C@H](CO)[C@@H](O)[C@H](O)[C@H]3O)ccc12 [compound 155],–,–,–,42.9%,40.9%,57.6%
CC(C)Oc1c(O)c(=O)oc2cc(O[C@@H]3O[C@H](CO)[C@@H](O)[C@H](O)[C@H]3O)ccc12 [compound 156],–,–,–,42.1%,43.2%,48.2%
